{"source": "patent US7488712B2", "about": "“Histone deacetylase inhibitors and methods for producing the same” (Kyushu Institute of Technology, priority 2002, dated 2009)", "key": {"human HDAC1": {"target": "T1, human HDAC1 (Homo sapiens, UniProt Q13547)", "T1 construct": "FLAG; made in house; host or cells: 293T cells (transient transfection, anti-FLAG immunoprecipitation, FLAG peptide elution)", "T1 sequence (Q13547 whole entry)": "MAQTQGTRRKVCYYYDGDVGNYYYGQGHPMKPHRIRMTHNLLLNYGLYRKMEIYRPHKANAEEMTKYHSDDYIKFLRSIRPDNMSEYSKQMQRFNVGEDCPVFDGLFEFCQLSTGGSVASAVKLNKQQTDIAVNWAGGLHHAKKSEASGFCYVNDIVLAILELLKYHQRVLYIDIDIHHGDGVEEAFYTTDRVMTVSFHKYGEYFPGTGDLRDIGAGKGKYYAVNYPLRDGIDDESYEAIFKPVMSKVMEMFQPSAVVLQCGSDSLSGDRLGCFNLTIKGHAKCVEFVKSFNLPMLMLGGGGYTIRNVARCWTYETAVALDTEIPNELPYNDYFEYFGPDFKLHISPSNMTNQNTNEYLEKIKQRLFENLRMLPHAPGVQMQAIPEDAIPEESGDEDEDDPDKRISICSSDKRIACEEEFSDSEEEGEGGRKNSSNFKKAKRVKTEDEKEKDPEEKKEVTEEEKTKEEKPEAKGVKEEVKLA", "assay": "In vitro HDAC inhibition activity, [3H]-acetylated histone substrate, HDAC1", "format": "biochemical", "conditions": "Table 3"}, "mouse HDAC6": {"target": "T2, mouse HDAC6 (Mus musculus, UniProt Q9Z2V5)", "T2 construct": "HA; made in house; host or cells: 293T cells (transient transfection, anti-HA immunoprecipitation, HA peptide elution)", "T2 sequence (Q9Z2V5 1-1149)": "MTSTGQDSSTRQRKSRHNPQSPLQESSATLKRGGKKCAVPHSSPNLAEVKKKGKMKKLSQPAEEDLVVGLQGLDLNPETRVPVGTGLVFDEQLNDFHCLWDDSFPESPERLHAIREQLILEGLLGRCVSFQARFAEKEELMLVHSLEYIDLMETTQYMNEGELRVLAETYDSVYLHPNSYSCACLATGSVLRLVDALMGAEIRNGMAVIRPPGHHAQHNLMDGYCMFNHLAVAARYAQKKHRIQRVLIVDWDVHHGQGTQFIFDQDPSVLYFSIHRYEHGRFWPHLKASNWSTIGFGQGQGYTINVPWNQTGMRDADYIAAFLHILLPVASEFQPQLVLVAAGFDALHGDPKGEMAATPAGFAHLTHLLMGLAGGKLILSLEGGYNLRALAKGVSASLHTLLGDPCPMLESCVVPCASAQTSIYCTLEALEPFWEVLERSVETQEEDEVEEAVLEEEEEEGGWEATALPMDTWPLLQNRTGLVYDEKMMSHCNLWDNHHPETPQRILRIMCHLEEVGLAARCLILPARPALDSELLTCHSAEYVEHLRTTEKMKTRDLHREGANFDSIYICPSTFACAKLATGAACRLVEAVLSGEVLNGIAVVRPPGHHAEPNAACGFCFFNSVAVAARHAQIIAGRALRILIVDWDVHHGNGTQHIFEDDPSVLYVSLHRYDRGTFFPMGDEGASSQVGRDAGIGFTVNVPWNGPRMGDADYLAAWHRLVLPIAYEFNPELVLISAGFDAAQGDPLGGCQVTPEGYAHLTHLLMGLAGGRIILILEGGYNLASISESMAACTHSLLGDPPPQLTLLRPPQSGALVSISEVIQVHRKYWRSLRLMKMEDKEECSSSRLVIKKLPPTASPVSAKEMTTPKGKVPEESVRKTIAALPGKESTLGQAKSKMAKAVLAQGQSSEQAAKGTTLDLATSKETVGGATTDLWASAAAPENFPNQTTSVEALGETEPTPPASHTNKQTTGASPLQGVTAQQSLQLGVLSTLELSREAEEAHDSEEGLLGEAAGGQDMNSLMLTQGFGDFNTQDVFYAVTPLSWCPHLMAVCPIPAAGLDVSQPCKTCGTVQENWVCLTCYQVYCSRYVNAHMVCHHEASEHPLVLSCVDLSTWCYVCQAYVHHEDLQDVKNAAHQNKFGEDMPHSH", "assay": "In vitro HDAC inhibition activity, [3H]-acetylated histone substrate, HDAC6", "format": "biochemical", "conditions": "Table 3"}, "[1]": {"assay": "Cytotoxicity test (free-LDH ratio), TIG-3", "format": "cell-based", "conditions": "human, TIG-3 human normal lung cells, 48 hours, free-LDH ratio 50%, read-out: LD50 (nM) TIG-3", "description": "This was then cultured for 18 hours."}, "[2]": {"assay": "Stability in serum (FCS), read out by p21 promoter inducing activity", "format": "in vitro ADME", "conditions": "FCS, 37° C.; activity at incubation time zero taken as 100%; FIG. 7", "description": "The stability of SCOP 152, SCOP 304, and SCOP 402 in serum was evaluated by the method shown below: 1 μl of 10 mM SCOP 152, SCOP 304, and SCOP 402 was added to 99 μl FCS, and incubated at 37° C. Each hour, NaCl in a sufficient amount for saturation and 1 ml of ethyl acetate were added to each mixture. After extraction, from 800 μl of the ethyl acetate phase, the ethyl acetate was distilled off, and then 100 μl of DMSO was added to the residue. The resulting solution was further diluted ten times with DMSO and used to measure p21 promoter inducing activity. Activity at incubation time zero was taken as 100%, and activities were compared (FIG. 7)."}}, "note": "Like-named read-outs stand apart in the source and are kept apart here."}
{"smiles": "CC[C@H](C)[C@@H]1NC(=O)[C@@H](Cc2ccc(OC)cc2)NC(=O)[C@H](CCCCCSSc2ccncc2)NC(=O)[C@H]2CCCN2C1=O", "note": "[SCOP 402, cyclo(-L-Am7(S4Py)-D-Tyr(Me)-L-Ile-D-Pro-)]", "values": [{"measurement": "IC50", "setting": "human HDAC1; hybrid with DTT (/DTT)", "result": 0.553, "unit": "nM"}, {"measurement": "IC50", "setting": "human HDAC1; hybrid, without DTT", "result": 6.76, "unit": "nM"}, {"measurement": "IC50", "setting": "mouse HDAC6; hybrid with DTT (/DTT)", "result": 2010, "unit": "nM"}, {"measurement": "IC50", "setting": "mouse HDAC6; hybrid, without DTT", "result": 1610, "unit": "nM"}, {"measurement": "CC50 at 48 h", "setting": "[1]; with DTT (/DTT)", "result": 4460, "unit": "nM"}, {"measurement": "CC50 at 48 h", "setting": "[1]; without DTT", "result": 13300, "unit": "nM"}, {"measurement": "Retention of activity in serum", "setting": "[2]", "result": "stably retain activity in serum for longer than SCOP 152"}]}
